# From ChEMBL document CHEMBL4138123, “Design, synthesis and biological evaluation of novel pyrazolochalcones as potential modulators of PI3K/Akt/mTOR pathway and inducers of apoptosis in breast cancer cells” (Eur J Med Chem, 2017)
# Columns and labels:
# DU-145 = experiment: Cytotoxicity against human DU145 cells assessed as cell growth at 100 uM after 48 hrs by sulforhodamine B assay relative to control; type: functional; settings: DU-145, 48 h, read-out: Activity
# SNB-75 = experiment: Cytotoxicity against human SNB75 cells assessed as cell growth at 100 uM after 48 hrs by sulforhodamine B assay relative to control; type: functional; settings: SNB-75, 48 h, read-out: Activity
# IGROV-1 [1] = experiment: Cytotoxicity against human IGROV1 cells assessed as cell growth at 0.1 uM after 48 hrs by sulforhodamine B assay relative to control; type: functional; settings: IGROV-1, 48 h, read-out: Activity
# SW-620 [2] = experiment: Cytotoxicity against human SW620 cells assessed as cell growth at 100 uM after 48 hrs by sulforhodamine B assay relative to control; type: functional; settings: SW-620, 48 h, read-out: Activity
# SW-620 [3] = experiment: Cytotoxicity against human SW620 cells assessed as cell growth at 0.01 uM after 48 hrs by sulforhodamine B assay relative to control; type: functional; settings: SW-620, 48 h, read-out: Activity
# HL-60(TB) = experiment: Cytotoxicity against human HL-60(TB) cells assessed as cell growth at 100 uM after 48 hrs by sulforhodamine B assay relative to control; type: functional; settings: HL-60, 48 h, read-out: Activity
# SNB-19 = experiment: Cytotoxicity against human SNB19 cells assessed as cell growth at 0.1 uM after 48 hrs by sulforhodamine B assay relative to control; type: functional; settings: SNB-19, 48 h, read-out: Activity
# Malme-3M = experiment: Cytotoxicity against human MALME-3M cells assessed as cell growth at 0.1 uM after 48 hrs by sulforhodamine B assay relative to control; type: functional; settings: read-out: Activity
# SW-620 [4] = experiment: Cytotoxicity against human SW620 cells assessed as cell growth at 10 uM after 48 hrs by sulforhodamine B assay relative to control; type: functional; settings: SW-620, 48 h, read-out: Activity
# SN12C = experiment: Cytotoxicity against human SN12C cells assessed as cell growth at 0.1 uM after 48 hrs by sulforhodamine B assay relative to control; type: functional; settings: read-out: Activity
# MOLT-4 = experiment: Cytotoxicity against human MOLT4 cells assessed as cell growth at 100 uM after 48 hrs by sulforhodamine B assay relative to control; type: functional; settings: MOLT-4, 48 h, read-out: Activity
# SK-MEL-28 [5] = experiment: Cytotoxicity against human SK-MEL-28 cells assessed as cell growth at 10 uM after 48 hrs by sulforhodamine B assay relative to control; type: functional; settings: SK-MEL-28, 48 h, read-out: Activity
# M14 = experiment: Cytotoxicity against human M14 cells assessed as cell growth at 1 uM after 48 hrs by sulforhodamine B assay relative to control; type: functional; settings: M14, 48 h, read-out: Activity
# MCF7 [6] = experiment: Cytotoxicity against human MCF7 cells assessed as cell growth at 0.1 uM after 48 hrs by sulforhodamine B assay relative to control; type: functional; settings: MCF7, 48 h, read-out: Activity
# SK-MEL-28 [7] = experiment: Cytotoxicity against human SK-MEL-28 cells assessed as growth inhibition after 48 hrs by sulforhodamine B assay; type: functional; settings: SK-MEL-28, 48 h
# SF-268 = experiment: Cytotoxicity against human SF268 cells assessed as cell growth at 0.01 uM after 48 hrs by sulforhodamine B assay relative to control; type: functional; settings: SF-268, 48 h, read-out: Activity
# HCT-116 = experiment: Cytotoxicity against human HCT116 cells assessed as cell growth at 10 uM after 48 hrs by sulforhodamine B assay relative to control; type: functional; settings: HCT-116, 48 h, read-out: Activity
# COLO 205 = experiment: Cytotoxicity against human COLO205 cells assessed as cell growth at 100 uM after 48 hrs by sulforhodamine B assay relative to control; type: functional; settings: COLO 205, 48 h, read-out: Activity
# HOP-62 = experiment: Cytotoxicity against human HOP62 cells assessed as cell growth at 100 uM after 48 hrs by sulforhodamine B assay relative to control; type: functional; settings: HOP-62, 48 h, read-out: Activity
# CCRF-CEM [8] = experiment: Cytotoxicity against human CCRF-CEM cells assessed as cell growth at 0.01 uM after 48 hrs by sulforhodamine B assay relative to control; type: functional; settings: read-out: Activity
# OVCAR-3 [9] = experiment: Cytotoxicity against human OVCAR3 cells assessed as cell growth at 0.1 uM after 48 hrs by sulforhodamine B assay relative to control; type: functional; settings: OVCAR-3, 48 h, read-out: Activity
# SK-MEL-5 [10] = experiment: Cytotoxicity against human SK-MEL-5 cells assessed as cell growth at 0.1 uM after 48 hrs by sulforhodamine B assay relative to control; type: functional; settings: SK-MEL-5, 48 h, read-out: Activity
# MCF7 [11] = experiment: Cytotoxicity against human MCF7 cells assessed as growth inhibition after 48 hrs by MTT assay; type: functional, cell-based; settings: MCF7, 48 h
# RXF 393 = experiment: Cytotoxicity against human RXF393 cells assessed as cell growth at 10 uM after 48 hrs by sulforhodamine B assay relative to control; type: functional; settings: RXF 393, 48 h, read-out: Activity
# OVCAR-3 [12] = experiment: Cytotoxicity against human OVCAR3 cells assessed as cell growth at 1 uM after 48 hrs by sulforhodamine B assay relative to control; type: functional; settings: OVCAR-3, 48 h, read-out: Activity
# CCRF-CEM [13] = experiment: Cytotoxicity against human CCRF-CEM cells assessed as cell growth at 10 uM after 48 hrs by sulforhodamine B assay relative to control; type: functional; settings: read-out: Activity
# UACC-62 = experiment: Cytotoxicity against human UACC62 cells assessed as cell growth at 0.1 uM after 48 hrs by sulforhodamine B assay relative to control; type: functional; settings: UACC-62, 48 h, read-out: Activity
# OVCAR-4 = experiment: Cytotoxicity against human OVCAR4 cells assessed as growth inhibition after 48 hrs by sulforhodamine B assay; type: functional; settings: OVCAR-4, 48 h
# Hs-578T = experiment: Cytotoxicity against human Hs 578T cells assessed as cell growth at 1 uM after 48 hrs by sulforhodamine B assay relative to control; type: functional; settings: read-out: Activity
# NCI-H322M = experiment: Cytotoxicity against human NCI-H322M cells assessed as cell growth at 1 uM after 48 hrs by sulforhodamine B assay relative to control; type: functional; settings: read-out: Activity
# SK-MEL-5 [14] = experiment: Cytotoxicity against human SK-MEL-5 cells assessed as growth inhibition after 48 hrs by sulforhodamine B assay; type: functional; settings: SK-MEL-5, 48 h
# NCI-H522 = experiment: Cytotoxicity against human NCI-H522 cells assessed as cell growth at 10 uM after 48 hrs by sulforhodamine B assay relative to control; type: functional; settings: NCI-H522, 48 h, read-out: Activity
# HT-29 [15] = experiment: Cytotoxicity against human HT-29 cells assessed as cell growth at 10 uM after 48 hrs by sulforhodamine B assay relative to control; type: functional; settings: HT-29, 48 h, read-out: Activity
# BT-549 = experiment: Cytotoxicity against human BT549 cells assessed as growth inhibition after 48 hrs by sulforhodamine B assay; type: functional; settings: BT-549, 48 h
# HT-29 [16] = experiment: Cytotoxicity against human HT-29 cells assessed as cell growth at 1 uM after 48 hrs by sulforhodamine B assay relative to control; type: functional; settings: HT-29, 48 h, read-out: Activity
# IGROV-1 [17] = experiment: Cytotoxicity against human IGROV1 cells assessed as cell growth at 1 uM after 48 hrs by sulforhodamine B assay relative to control; type: functional; settings: IGROV-1, 48 h, read-out: Activity
structure (smiles),measurement,setting,value
COc1ccc(-c2cc(/C=C/C(=O)c3ccc(N)cc3)[nH]n2)cc1OC,growth at 100 µM,DU-145,-100%
same,growth at 100 µM,SNB-75,-97%
same,growth at 0.1 µM,IGROV-1 [1],106%
same,growth at 100 µM,SW-620 [2],-53%
same,growth at 0.01 µM,SW-620 [3],99%
same,growth at 100 µM,HL-60(TB),3%
same,growth at 0.1 µM,SNB-19,90%
same,growth at 0.1 µM,Malme-3M,108%
same,growth at 10 µM,SW-620 [4],-18%
same,growth at 0.1 µM,SN12C,99%
same,growth at 100 µM,MOLT-4,-22%
same,growth at 10 µM,SK-MEL-28 [5],-29%
same,growth at 1 µM,M14,101%
same,growth at 0.1 µM,MCF7 [6],89%
same,GI50,SK-MEL-28 [7],2.14 µM
same,LC50,SK-MEL-28 [7],21.1 µM
same,TGI,SK-MEL-28 [7],5.66 µM
same,growth at 0.01 µM,SF-268,100%
same,growth at 10 µM,HCT-116,-73%
same,growth at 100 µM,COLO 205,-78%
same,growth at 100 µM,HOP-62,-98%
same,growth at 0.01 µM,CCRF-CEM [8],97%
same,growth at 0.1 µM,OVCAR-3 [9],108%
same,growth at 0.1 µM,SK-MEL-5 [10],95%
same,IC50,MCF7 [11],1.9 µM
same,growth at 10 µM,RXF 393,-39%
same,growth at 1 µM,OVCAR-3 [12],92%
same,growth at 10 µM,CCRF-CEM [13],-8%
same,growth at 0.1 µM,UACC-62,94%
same,GI50,OVCAR-4,2.68 µM
same,LC50,OVCAR-4,40.5 µM
same,TGI,OVCAR-4,15.8 µM
same,growth at 1 µM,Hs-578T,96%
same,growth at 1 µM,NCI-H322M,95%
same,GI50,SK-MEL-5 [14],3.16 µM
same,LC50 (concentration killing 50% of cells),SK-MEL-5 [14],36.1 µM
same,TGI,SK-MEL-5 [14],11.5 µM
same,growth at 10 µM,NCI-H522,-84%
same,growth at 10 µM,HT-29 [15],-19%
same,GI50,BT-549,1.5 µM
same,LC50 (concentration killing 50% of cells),BT-549,5.77 µM
same,TGI,BT-549,2.94 µM
same,growth at 1 µM,HT-29 [16],99%
same,growth at 1 µM,IGROV-1 [17],100%
COc1ccc(-c2cc(/C=C/C(=O)c3cc(OC)c(OC)c(OC)c3)[nH]n2)cc1OC,growth at 100 µM,DU-145,-88%
same,growth at 100 µM,SNB-75,-82%
same,growth at 0.1 µM,IGROV-1 [1],97%
same,growth at 100 µM,SW-620 [2],-43%
same,growth at 0.01 µM,SW-620 [3],98%
same,growth at 100 µM,HL-60(TB),-8%
same,growth at 0.1 µM,SNB-19,92%
same,growth at 0.1 µM,Malme-3M,89%
same,growth at 10 µM,SW-620 [4],-43%
same,growth at 0.1 µM,SN12C,99%
same,growth at 100 µM,MOLT-4,-15%
same,growth at 10 µM,SK-MEL-28 [5],-49%
same,growth at 1 µM,M14,91%
same,growth at 0.1 µM,MCF7 [6],86%
same,GI50,SK-MEL-28 [7],1.91 µM
same,LC50,SK-MEL-28 [7],10.6 µM
same,TGI,SK-MEL-28 [7],4.41 µM
same,growth at 0.01 µM,SF-268,99%
same,growth at 10 µM,HCT-116,-81%
same,growth at 100 µM,COLO 205,-88%
same,growth at 100 µM,HOP-62,-84%
same,growth at 0.01 µM,CCRF-CEM [8],97%
same,growth at 0.1 µM,OVCAR-3 [9],100%
same,growth at 0.1 µM,SK-MEL-5 [10],102%
same,IC50,MCF7 [11],1.1 µM
same,growth at 10 µM,RXF 393,-80%
same,growth at 1 µM,OVCAR-3 [12],84%
same,growth at 10 µM,CCRF-CEM [13],-15%
same,growth at 0.1 µM,UACC-62,98%
same,GI50,OVCAR-4,1.62 µM
same,TGI,OVCAR-4,7.17 µM
same,growth at 1 µM,Hs-578T,86%
same,growth at 1 µM,NCI-H322M,82%
same,GI50,SK-MEL-5 [14],1.58 µM
same,LC50 (concentration killing 50% of cells),SK-MEL-5 [14],5.44 µM
same,TGI,SK-MEL-5 [14],2.93 µM
same,growth at 10 µM,NCI-H522,-94%
same,growth at 10 µM,HT-29 [15],-87%
same,GI50,BT-549,1.36 µM
same,LC50 (concentration killing 50% of cells),BT-549,6.32 µM
same,TGI,BT-549,2.93 µM
same,growth at 1 µM,HT-29 [16],68%
same,growth at 1 µM,IGROV-1 [17],93%
